The values that follow come from patent US10105380B2, “Glycoclusters and their pharmaceutical use as antibacterials” (priority 2013, dated 2018).

In assay [1] the target is T1, PA-IL (Pseudomonas aeruginosa, UniProt Q05097). The experiment in a line: DDI glycoarray, direct fluorescence scanning with Alexa647-PA-IL. The settings on record: result in words. Type of assay: binding.
Assay [2] concerns the target T1, PA-IL. Type of assay: binding. The conditions noted are these: for Potency vs EG3-O-Gal: ratio of IC50Lac to mono EG3-O-galactose (entry 1); for Potency vs AcNPhe-O-Gal: ratio of IC50Lac to mono-aromatic galactose 31 (entry 2). As for the experimental part:
IC50 Determination with “on Chip” Biological Recognition
Lectin PA-IL (0.12 μM final concentration), BSA (2% final concentration) and CaCl2 (1 μg/mL final concentration) was diluted in PBS1× (pH=7.4). In each micro tube was added the inhibitor lactose at the desired final concentration (0; 1.10^−5; 1.10^−4; 5.10^−4; 1.10^−3; 5.10^−3; 1.10^−2; 5.10^−2; 0.1; 1; 5; 10; 50; 10^2; 5.10^2; 10^3; 5.10^3; 10^4; 10^5; 3.10^5).
2 μL of each solution were deposited in the corresponding microwells and the slide was incubated at 37° C. in a water vapor saturated chamber for 3 h. The washing steps are: PBS-Tween0.2% 5 min at 4° C., then briefly in deionized water and dried by centrifugation.
Slide was scanned at 532 nm then at 635 nm with the Microarray scanner, GenePix 4100A software package (Axon Instruments; λex 532/635 nm and λem 575/670 nm). The fluorescence signal of each conjugate was determined as the average of the mean fluorescence signal of sixty-four spots.
IC50 values were determined using “BioDataFit 1.02 program”. The model chosen was “Sigmoidal”: Y=a+(b−a)/[1+10^(x−c)]
with a=FImin, b=FImax, x=[…] and c=log(IC50). FImin/max is the minimum/maximum Alexa-647 fluorescence signal observed for a galactomimetic.
So the IC50 value was called IC50Lac.

The target of assay [3] is T1, PA-IL. As to the kind of experiment: Hemagglutination inhibition assay (HIA), rabbit erythrocytes. Type of assay: cell-based. As for the experimental part:
The binding of PA-IL to galactoclusters was probed as the ability of the clusters to inhibit the binding of PA-IL to rabbit erythrocytes (Hemagglutination inhibition assay, HIA) or to surface bound galactosyl modified polyacrylamide either by Surface Plasmon Resonance (SPR), Enzyme Linked Assay (ELLA) Inhibition was measured with competitive assays. In HIA experiments, the minimal inhibitory concentration (MIC) is the minimal concentration of galactocluster that inhibit the hemagglutination of rabbit erythrocytes in presence of the lectin. The lower the MIC the highest is the binding of the galactocluster to the lectin. SPR and ELLA were used to determine the IC50 value. […] The lower the IC50 value as determined by SPR (^SPRIC50) and ELLA (^ELLAIC50), the higher is the binding of PA-IL to the galactocluster.
Hemagglutination inhibition assays (HIA) were performed in U-shaped 96-well microtitre plates. Rabbit erythrocytes were purchased from Biomérieux and used without further washing. Erythrocytes were diluted to a 8% solution in NaCl (100 mM). PA-IL solutions of 3 μM were prepared in TRIS-HCl 20 mM (TRIS=tris(hydroxymethyl)aminomethane), NaCl 100 mM, and CaCl2 100 mM. The hemagglutination unit (HU) was first obtained by addition of the 4% erythrocyte solution (50 μL) to aliquots (50 μL) of sequential (twice) lectin dilutions. The mixture was incubated at 25° C. for 30 min. The HU was measured as the minimum lectin concentration required to observe hemagglutination. For the following lectin-inhibition assays, lectin concentrations of 4 HU were used. […] Subsequent inhibition assays were then carried out by the addition of lectin solution (25 μL, at the required concentration) to sequential dilutions (50 μL) of glycoclusters, monomer molecules, and controls. These solutions were incubated at 37° C. for 30 min, then 8% erythrocyte solution (25 μL) was added, followed by an additional incubation at 37° C. for 1 h. The minimum inhibitory concentration for each molecule was determined for each duplicate.

For assay [4], the target named is T1, PA-IL. The class given is binding. The conditions noted are these: potency in respect with GalOMe (ITC Kd).
Procedure: Recombinant lyophilized PA-IL was dissolved in buffer (0.1 M TRIS-HCl, 6 μM CaCl2, pH 7.5) and degassed. […] ITC was performed using a VP-ITC MicroCalorimeter from MicroCal Incorporated. PA-IL was placed into the1.4478 mL sample cell, at 25° C. Titration was performed with 10 μL injections of carbohydrate ligands every 300 s. Data were fitted using the “one-site model” using MicroCal Origin 7 software according to standard procedures. Fitted data yielded the stoichiometry (n), the association constant (Ka), and the enthalpy of binding (ΔH). Other thermodynamic parameters (i.e., changes in free energy ΔG and entropy ΔS) were calculated from the equation ΔG=ΔH−TΔS=−RTlnKa in which T is the absolute temperature and R=8.314 J·mol^−1·K^−1. Two or three independent titrations were performed for each ligand tested.
Assay [5] concerns the target T1, PA-IL. The experiment in a line: Kd determination on DDI microarray (Langmuir isotherm, Scatchard plot). Type of assay: binding. The settings on record: text b577, microarray, Langmuir isotherm. The method, then:
The methodologies for Kd and IC50 value determination have been previously reported (Gerland, B. et al., (2012) Bioconjugate Chem. 23, 1534-1547; Zhang, J. et al., (2009) Chem. Comm., 6795-6797; Zhang, J. et al., (2009) Biosens. Bioelectron. 24, 2515-2521).
CaCl2 (1 μg/mL final concentration) was added. PA-IL at the desired final concentration was then added. 2 μL of each solution (corresponding to the desired PA-IL concentration) were poured in the corresponding microwells. The slide was incubated (3 h, 37° C.) in a water vapor saturated chamber and finally washed in PBS-Tween 20 (0.02%, 5 min, 4° C.) and dried. A Microarray scanner, GenePix 4100A software package (Axon Instruments; λex 532/635 nm and λem 575/670 nm) was used for fluorescent imaging of both fluorophore (Cy3 and Alexa 647). The average of the mean fluorescence signal was calculated from eight spots. The resulting Langmuir Isotherms were linearised using Scatchard plot to give the Kd values at the ordonnate intercept.

Broadly, the Kd is the concentration at which binding is half-saturated.

≈ marks a conversion by molar mass, not a printed value. Read-outs that look alike come from different tables or passages of the source.

T1 sequence (Q05097 2-122): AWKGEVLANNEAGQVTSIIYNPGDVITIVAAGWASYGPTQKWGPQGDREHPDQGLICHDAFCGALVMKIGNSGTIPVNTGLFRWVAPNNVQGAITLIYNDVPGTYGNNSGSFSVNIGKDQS

Consider Man(HexTzM-Gal)4 [compound 18], for which, at PA-IL [1], the “binding to PA-IL on microarray” value was “high binding”. Further, the IC50 at PA-IL [2] (lactose concentration required to displace 50% of PA-IL from the glycocluster, higher = better binding, read-out: IC50Lac) was 107 µM. On PA-IL [2], the “Potency vs EG3-O-Gal” value is 21 and the “Potency vs AcNPhe-O-Gal” value is 6.7.

In the case of `CO[C@@H]1O[C@H](CO)[C@H](O)[C@H](O)[C@H]1O` [Gal-OMe, 1-O-Methyl-β-D-galactoside], at PA-IL [3] (minimal inhibitory concentration of hemagglutination, PA-IL 3 μM), the MIC amounted to 16 mM (≈ 3110 µg/mL). On PA-IL [3] (ratio of MIC of Gal-OArNO2 over MIC of the molecule), the βAr was found to be 0.13. In addition, the βMe at PA-IL [3] (ratio of MIC of Gal-OMe over MIC of the molecule) came to 1.0; on PA-IL [4], 1.

With Man(POProTzAcNPhe-O-Gal)4 [17d], on PA-IL [1], the “binding to PA-IL on microarray” value was “high binding”. Also, on PA-IL [2] (Table 6, relative potency vs monovalent ligand 31), the β came to 177. At PA-IL [2], the “Potency vs EG3-O-Gal” value came to 565 and the “Potency vs AcNPhe-O-Gal” value worked out at 177. For the same compound, the Kd at PA-IL [5] turned out to be 0.196 µM.
